Results published in patent publication US11963953B2, “Deuterated compounds for restoring mutant p53 function” (PMV Pharmaceuticals, Inc., priority 2022, dated 2024).
Each block holds one molecule with its values, some of them ahead of it.

Legend:
p53 Y220C = target: T1, p53 Y220C (Homo sapiens, UniProt P04637, Y220C); test: In vitro DNA binding activity assay (HTRF / TR-FRET) of recombinant His-tagged p53 Y220C DNA binding domain with biotin-labeled consensus DNA; assay type: biochemical; settings: concentration required to increase DNA binding activity of p53 Y220C by 50%
T1 construct: made in house; host or cells: E. coli
Method: The ability of a compound of the disclosure to stabilize p53 Y220C and increase the DNA binding activity of p53 Y220C was measured by a homogeneous time-resolved fluorescence (HTRF) assay. Recombinant His-tagged p53 Y220C used in the HTRF assay was expressed in the bacterium E. coli. The recombinant protein was a truncation mutant containing only amino acids 94-312 of p53, which encompassed the DNA binding domain (DBD) of p53 (SEQ ID NO.: 1). The His-tagged p53 Y220C was tested for DNA binding ability with a consensus sequence of DNA (DNA duplex with a sequence of 5 ¢-[…]-3 ¢; SEQ ID NO.: 2). SEQ ID NO.: 2 was then conjugated with a biotin label and used in the activity assay.
The binding of the recombinant His-tagged p53 Y220C protein and the biotin-labeled consensus DNA was measured using fluorescence resonance energy transfer (FRET). For the FRET assay, the binding between the p53 mutant and the DNA sequence was measured by detecting the fluorescence of the interaction between an anti-His antibody conjugated to allophycocyanin (APC) and streptavidin conjugated to europium to detect the biotin-labeled DNA.
The test compounds were prepared as 4.5 mM stock solutions in dimethyl sulfoxide (DMSO). The compounds of the disclosure were used to test the stabilization of p53 Y220C and increase in DNA binding activity of p53 Y220C. The stock solutions were then serially diluted 3-fold in DMSO, and 1.2 μL of the diluted solutions was added to each well of a 384-well polypropylene black plate. 30 μL of a 181 nM solution of the recombinant His-tagged p53 Y220C protein and 12.1 nM of APC conjugated anti-His tag antibody in ice-cold Assay Buffer 1 (50 mM Tris-HCl, pH 7.4; 75 mM KCl; 0.75 mM DTT; and 0.2 mg/mL bovine serum albumin (BSA) was added to each well containing the test compounds.
As a background control, […] of Assay Buffer 1 containing 12.1 nM of APC anti-His antibody was also added into a second set of serially-diluted compound plates. […] The assay signals were monitored by reading excitation at 340 nm, and emission fluorescence at 615 nm and 665 nm on a plate reader.
Normalized time-resolved fluorescence resonance energy transfer (TR-FRET) assay signal (Rn) was calculated by the formula: Rn=[(A-Ba-CD)/(D-Bd)](Dc-Bd) where A was the fluorescence intensity of the sample at 665 nm; D was the fluorescence intensity of the sample at 615 nm; Ba and Bd were plate background readings at 665 nm and 615 nm, respectively; and Dc was the fluorescence intensity of 1.8 nM Eu-SA in the assay buffer at 615 nm.
The cross-talk factor (C) was determined by the following formula: C═(Ac—Ba)/(Dc-Bd) where Ac was the fluorescence intensity of 1.8 nM Eu-labeled anti-FLAG antibody in the assay buffer at 665 nm. […] The SC150 values were calculated using either Prism™ or ActivityBase™.

[1] = Pharmacokinetic analysis after single oral administration to male cynomolgus monkeys, with plasma levels of parent and glucuronidation metabolites; settings: cynomolgus monkey, in vivo, 25 mg/kg
Method: The pharmacokinetics (PK) of a deuterated compound and a comparator compound were measured following a 2-phase single oral (PO) administration to male cynomolgus monkeys. Compound and metabolite levels were monitored for up to 48 hours following dosing.
A group of 3 non-naïve male cynomolgus monkeys were used in this 2-phase study with a 5-day washout period between each phase. Animals in Phases 1 or 2 were administered the compounds by single oral administration at 25 mg/kg. The vehicle used for the oral studies was 2% (w/v) hydroxypropylcellulose (HPC) w/v in water [“vehicle” ]. Administration was PO in fasted (overnight) animals. […] The body weights of the animals were in the range from 2.28 to 3.32 kg for males on the dosing day of Phase 1. All animals received a single oral gavage administration in each Phase.
Compound formulations were prepared in accordance with the following procedure: 257.0 mg of Compound C (4-[3-[4-[[(3S,4R)-3-fluoro-1-methyl-4-piperidyl]amino]-1-(2,2,2-trifluoroethyl)indol-2-yl]prop-2-ynylamino]-N-methyl-3-(methoxy)benzamide) was added to a pre-calibrated beaker, manually mixed with 1 mL of vehicle, stirred for 5 min to generate homogenous opaque suspension. An additional 40 mL of vehicle was added with manual mixing, and stirred for 5 min to generate a homogenous opaque suspension. An additional 9.218 mL of vehicle was added, and stirred overnight to generate a homogenous opaque suspension. 260.3 mg of Compound 3 (4-[3-[4-[[(3S,4R)-3-fluoro-1-methyl-4-piperidyl]amino]-1-(2,2,2-trifluoroethyl)indol-2-yl]prop-2-ynylamino]-N-methyl-3-(trideuteriomethoxy)benzamide) was added to a pre-calibrated beaker, manually mixed test article with 49.978 mL of vehicle, stirred for 30 min to generate a homogenous opaque suspension. Formulations were stored at room temperature for up to 15 days after preparation.
The detailed dosing and sampling regimens are described in the following table.
The concentrations of the compounds in all dosing solutions were determined by UPLC-UV [ACQUITY UPLC, ACQUITY UPLC BEH C8 1.7 m 2.1×100 mm Column, Mobile phase A: 0.1% FA & 2 mM HCOONH4 in water/ACN (v:v, 95:5), Mobile phase B: 0.1% FA & 2 mM HCOONH4 in ACN/water (v:v, 95:5)]. Three aliquots were taken from the bottom, middle and top regions of PO dosing solutions.
Plasma samples were collected at 0.25, 0.5, 1, 2, 4, 8, 12, 24 and 48 hours post-dose in Phases 1 and 2. Blank Plasma: Whole blood was collected from available stock animal into commercially available tubes containing K2-EDTA on wet ice and processed for plasma. The plasma was pooled to serve as blank monkey plasma. PK plasma: Approximately 0.5 mL of blood was collected at each time point via peripheral vessel from each study animal. The actual time for each sample collection was recorded. The deviations on sampling time were less than 1 minute for the time points pre-dose through 1 hour post-dose, and less than 5% of the nominal time for time points after 1 hour post-dose. All blood samples were transferred into commercial tube (Jiangsu Kangjian medical supplies Co., Ltd.) containing K2-EDTA (0.85-1.15 mg) and placed on wet ice until processed for plasma. Plasma samples were prepared within 1 hour of collection by centrifuging the blood samples at approximately 2-8° C., 3200×g for 10 minutes. Plasma samples of about 0.1 mL×2 aliquots (one for BA, and the other one for back up) for each time point were transferred into labeled polypropylene micro-centrifuge tubes and stored frozen in a freezer set to be maintained at −60° C. or lower until LC-MS/MS analysis. Concentrations of the compounds and metabolite in plasma samples were determined by a liquid chromatography tandem mass spectrometry (LC-MS/MS) method [Triple Quad 6500 Plus, ESI (+) ionization mode, MRM detection mode]. The plasma concentration of the compounds and metabolites in study animals was subjected to a non-compartmental pharmacokinetic analysis by using the Phoenix WinNonlin software (version 6.3 or above, Pharsight). […]

SC150 (p53 Y220C): +++ (+++ = 0 nM < SC150 < 10 nM)
Structure (SMILES): [2H]C([2H])([2H])NC(=O)c1ccc(NCC#Cc2cc3c(N[C@@H]4CCN(C)C[C@@H]4F)cccc3n2CC(F)(F)F)c(OC([2H])([2H])[2H])c1 [Compound 6, 4-[3-[4-[[(3S,4R)-3-fluoro-1-methyl-4-piperidyl]amino]-1-(2,2,2-trifluoroethyl)indol-2-yl]prop-2-ynylamino]-3-(trideuteriomethoxy)-N-(trideuteriomethyl)benzamide]

SC150 (p53 Y220C): ++ (++ = 10 nM < SC150 < 50 nM)
Structure (SMILES): [2H]C([2H])([2H])NC(=O)c1ccc(NCC#Cc2cc3c(N[C@@H]4CCN(C)C[C@@H]4F)cccc3n2CC(F)(F)F)c(OC)c1 [Compound 5, 4-[3-[4-[[(3S,4R)-3-fluoro-1-methyl-4-piperidyl]amino]-1-(2,2,2-trifluoroethyl)indol-2-yl]prop-2-ynylamino]-3-methoxy-N-(trideuteriomethyl)benzamide]

% of total analyte area, analyte Parent [1]: 42.0%
AUC0-24 % Rel. to Cpd C value, analyte Parent [1]: 160%
AUC(0-inf) [1]: 118 µg·h/mL
AUCExtra [1]: 0.599%
Cmax [1]: 10000 ± 4180 ng/mL
Tmax [1]: 2 h
half-life [1]: 6.37 h
increase in AUC over Compound C [1]: about 60%
reduction in glucuronidation metabolite (first named) [1]: 70%
reduction in glucuronidation metabolite (second named) [1]: 10%
AUC(0-t) ([1]; AUC0-24): 107 ± 29.2 µg·h/mL
AUC(0-t) ([1]; AUC0-24, analyte Parent): 107 µg·h/mL
AUC(0-t) ([1]; AUC0-last): 118 µg·h/mL
Structure (SMILES): [2H]C([2H])([2H])Oc1cc(C(=O)NC)ccc1NCC#Cc1cc2c(N[C@@H]3CCN(C)C[C@@H]3F)cccc2n1CC(F)(F)F [Compound 3, 4-[3-[4-[[(3S,4R)-3-fluoro-1-methyl-4-piperidyl]amino]-1-(2,2,2-trifluoroethyl)indol-2-yl]prop-2-ynylamino]-N-methyl-3-(trideuteriomethoxy)benzamide]

SC150 (p53 Y220C): +++ (+++ = 0 nM < SC150 < 10 nM)
Structure (SMILES): [2H]C([2H])([2H])Oc1cc(S(C)(=O)=O)ccc1NCC#Cc1cc2c(N[C@H]3CCN(C)C[C@H]3F)cccc2n1CC(F)(F)F (racemic) [Compound 10, Rac-N-((3R,4S)-3-fluoro-1-methylpiperidin-4-yl)-2-(3-((2-(methoxy-d3)-4-(methylsulfonyl)phenyl)amino)prop-1-yn-1-yl)-1-(2,2,2-trifluoroethyl)-1H-indol-4-amine]

SC150 (p53 Y220C): +++ (+++ = 0 nM < SC150 < 10 nM)
Structure (SMILES): [2H]C([2H])([2H])Oc1cc(S(C)(=O)=O)ccc1NCC#Cc1cc2c(N[C@@H]3CCN(C([2H])([2H])[2H])C[C@@H]3F)cccc2n1CC(F)(F)F (racemic) [Compound 4, rac-N-[(3S,4R)-3-fluoro-1-(trideuteriomethyl)-4-piperidyl]-2-[3-[4-methylsulfonyl-2-(trideuteriomethoxy)anilino]prop-1-ynyl]-1-(2,2,2-trifluoroethyl)indol-4-ylamine]
